Like-named read-outs stand apart in the source and are kept apart here.
Assays:
[1] = system: Phakopsora pachyrhizi (the causal agent of Asian soybean rust); assay: Test E: compounds alone and mixtures sprayed on soybean seedlings, Asian soybean rust, observed and Colby-expected disease control; assay type: in vivo; conditions: Phakopsora pachyrhizi, read-out: Test E Obsd
Summary of the method: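 Soybean seedlings were sprayed to run-off with compounds or mixtures in ppm. Technical materials were applied in acetone/water with 250 ppm Trem 014; formulated products were applied in water. Plants were inoculated with Phakopsora pachyrhizi spores the next day, held 24 h saturated at 22° C, then 8 days at 22° C. Visual % disease control is the mean of four plants, and Colby-expected values are given for mixtures.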

[2] = system: Zymoseptoria tritici (the causal agent of wheat leaf blotch); assay: Test B: preventive spray on wheat seedlings, wheat leaf blotch, visual disease rating; assay type: in vivo; conditions: Zymoseptoria tritici, 456 h; 250 ppm test suspension; wheat seedlings; 100 = 100% disease control
Summary of the method: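 This is a preventive test: spray application preceded Zymoseptoria tritici spore inoculation by one day. Test suspensions were in acetone/water with 250 ppm PEG400 surfactant, at the listed ppm rate. After 48 h saturated humidity at 24° C and 17 days at 20° C, visual ratings scored control from 0 to 100%.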

[3] = system: Phakopsora pachyrhizi (the causal agent of Asian soybean rust); assay: Test A: preventive spray on soybean seedlings, Asian soybean rust, visual disease rating; assay type: in vivo; conditions: Phakopsora pachyrhizi, 216 h; 10 ppm test suspension; soybean seedlings; 100 = 100% disease control, 0 = no control
Summary of the method: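 Compound in acetone/water (50/50) with 250 ppm PEG400 sprayed to run-off on soybean seedlings; inoculated next day with Phakopsora pachyrhizi spores. Held 24 h at 22° C in saturated atmosphere, then 8 days in a 22° C growth chamber before visual rating as % disease control relative to controls.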

[4] = system: Puccinia recondita f. sp. tritici (the causal agent of wheat leaf rust); assay: Test C: preventive spray on wheat seedlings, wheat leaf rust, visual disease rating; assay type: in vivo; conditions: Puccinia recondita, 168 h; 10 ppm test suspension; wheat seedlings; 100 = 100% disease control, 0 = no control
Summary of the method: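 Wheat seedlings sprayed to run-off with compound in acetone/water (50/50) with 250 ppm PEG400, then inoculated with spores the following day. After 24 h saturated humidity at 20° C. and 6 days in growth chamber at 20° C., disease rated visually as % control relative to untreated controls.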

| Structure (SMILES) | pest or weed control at 1.893 ppm ([1]; Compound 512 alone) [%] | pest or weed control at 3.829 ppm ([1]; Compound 512 alone) [%] | pest or weed control at 1.893 ppm ([1]; applied alone) [%] | pest or weed control at 3.829 ppm ([1]; applied alone) [%] | pest or weed control at 250 ppm [2] [%] | pest or weed control at 10 ppm [3] [%] | melting point [°C] | pest or weed control at 10 ppm [4] [%] | pest or weed control at 0.241 ppm ([1]; applied alone, 0.241 ppm) [%] |
| --- | --- | --- | --- | --- | --- | --- | --- | --- | --- |
| Cn1nc(Cc2ccc(-c3noc(C(F)(F)F)n3)cc2)cc1C(=O)NCC(F)(F)F [Compound 512, 1-methyl-N-(2,2,2-trifluoroethyl)-3-[[4-[5-(trifluoromethyl)-1,2,4-oxadiazol-3-yl]phenyl]methyl]-1H-pyrazole-5-carboxamide] | 9 | 58 | 14 | 66 | 98 | 100 | 156 to 160 | 100 |  |
| COCCNC(=O)c1csc(Cc2ccc(-c3noc(C(F)(F)F)n3)cc2)n1 [Compound 394, N-(2-methoxyethyl)-2-[[4-[5-(trifluoromethyl)-1,2,4-oxadiazol-3-yl]phenyl]methyl]-4-thiazolecarboxamide] |  |  |  |  | 99 | 100 | 83 to 87 | 100 | 4 |

Source: patent publication US20240090503A1, “FUNGICIDAL OXADIAZOLES AND THEIR MIXTURES” (FMC CORPORATION, priority 2020, published 2024)
